Measurements: patent US20240197712A1, “TGF-BETA INHIBITION FOR IMMUNODEFICIENCY VIRUS REACTIVATION FROM LATENCY, ENHANCEMENT OF IMMUNODEFICIENCY VIRUS-SPECIFIC RESPONSES AND IMMUNODEFICIENCY VIRUS CURE” (Northwestern University, priority 2022, published 2024)

Tests used:
primary CD4+ T cells = assay: Primary CD4+ T cell model of HIV-1 latency, p24 ICS; type: cell-based, human; settings: primary CD4+ T cells infected with HIV ADA; PMA 100 ng/ml; TGF-β1 10 ng/ml or galunisertib 1 μM
Protocol: Next, the impact of TGF-β1 on a primary model of HIV-1 latency was tested using freshly isolated CD4+ T cells. The experiment was based on the model by Berkhout and colleagues (50) with some modifications (FIG. 1F). Specifically, CD4+ T cells were isolated from HIV-1 uninfected, de-identified donor PBMC and activated them with PHA and IL-2 for 3 days before infection via spinoculation with HIV ADA. After extensive wash of the viral inoculum, cells were cultured 48 hrs in presence of T20 (enfuvirtide) to avoid viral spread beyond the cells with initial integrations. The overall initial infection achieved was very low despite the spinoculation step (˜0.1% of p24-gag+ cells, FIGS. 3A-3B).
Blood from de-identified donors was obtained from the New York Blood Bank and used as source of CD4 T cells for the primary model of HIV latency in vitro. Total CD4+ T cells were isolated with the CD4 T cells isolation kit (Miltenyi) and activated with 5 μg/ml of PHA and 50 U/ml of IL-2 for 3 days. After washing out the PHA, cells were infected with 200TCID50 of HIV-ADA (NIH HIV Reagent Program) in 12 or 24 wells/plates and spinoculated at 1200 g for 2 hrs at 25° C. After additional 3 hrs of incubation at 37° C., viral inoculum was washed and cells plated in presence of T20 (Enfurtivide acetate salt, 1 μM NIH AIDS reagent program). […]

SIV-env = assay: ImmunoPET/CT, four-cycle study; type: in vivo, rhesus macaques
Protocol: ImmunoPET/CT for mapping SIV signals in total body scans were conducted in part as reported previously (110). The probe consisted of primatized p7D3 anti-env F(ab)′2 coupled with the chelator DOTA and labeled with Cu64 just prior to administration to the animals. For probe administration, the animals were sedated, and a venous catheter was placed into an arm of leg vein to minimize bleeding of the probe into the tissue surrounding the site of injection. The probe for each animal consisted of ˜1 mg of the p7D3 F(ab)′2 labeled with 2-3 mCi of ^64Cu. After injection, the animals were allowed to recuperate in their cage until the next day. At 24 hours, the animals were again anesthetized with Telazol and the macaque's body was immobilized in dorsal recumbency on the scanner table. Scans were conducted 535 in a Phillips Gemini TF64 scanner. The final CT image was compiled from 200 to 300 slices, depending on macaque size. PET Image analysis was performed using the MIM software. PET/CT fusions were generated scaled according to calculated Standardized Uptake Values (SUV). The SUV scale for the PET scans was selected based on the overall signal intensity of the PET scans (whole body), and the CT scale was selected for optimal visibility of the tissues. All images and maximum image projections were set to the same scale for visual comparisons.
Multimodal registration and ROI segmentation were executed using the MIM software (MIM Software, Inc., Cleveland, OH) for PET and CT images, encompassing 250 to 300 fractions, depending on the macaque's body size. PET and CT images were fused to quantify changes in SUV (Standardized Uptake Value) within Regions of Interest (ROI), with PET SUV scale determined by overall signal intensity and CT scale optimized for tissue visibility. Segmentations were performed for various anatomical regions: Whole Body, Liver, Lymph nodes, Gut, Kidneys, Spleen, and Vertebrae. The external body was outlined for the Whole-Body contour, while the GRADIENT method PET-Edge and interactive contouring tools were employed for other ROIs. Liver segmentation initially utilized PET-Edge in PET coronal-sectional view, followed by interactive delineation for the structure and the corresponding signals. Kidneys, Spleen, and Vertebrae volume were determined based on CT scans in the cross-sectional view, incorporating PET signals into contours. […] To quantify the signal in the axillary lymph nodes, the data-point in each macaque featuring the strongest PET signal was chosen as a basis for an inhouse Multi-Time-Point Contour Transfer Workflow, followed by interactive contouring of the signal to all time points. The workflow integrated CT scans to establish and map specific ROIs in subsequent scans, thereby accounting for any changes in the animal's orientation at other time points through manual adjustments. To quantify the signal in the gut tissue, the body segment below the stomach to above the cervix was initially isolated. The Gut's SUV was then calculated by extracting the spleen, both kidneys, liver, and bones within the designated body region using Boolean operations.

[1] = Clinical pathology (chemistry, hematology) and adverse events; type: in vivo, rhesus macaques
Protocol: 1 mL of blood was collected in EDTA tubes and tested for a standard hematology panel (complete blood count—CBC) using a BECKMAN COULTER DxH600 hematology analyzer. An additional 1 mL of blood was collected into a SST tube, centrifuged to isolate serum, and analyzed for a comprehensive serum chemistry panel using a Siemens's Dimension Clinical Chemistry Analyzer.

[2] = tested on: SIVmac239 gag, pol and env peptides; assay: SIV-specific responses, FluoroSpot of PBMC; type: in vivo, rhesus macaques
Protocol: Cytokines in plasma (at 1:2 dilution) were measured using the NHP Cytokine 24-Plex kit by Meso Scale Diagnostics (MSD) according to manufacturer instructions. Frozen PBMC collected at week 6 post-infection (pre-ART), right before the first galunisertib administration (BC1), at the end of cycle 1 (AC1) and at the end of cycle 3 (AC3) were thawed in AIM V medium (ThermoFisher) with benzonase (Sigma) and plated on a FluoroSpot (CTL) plate pre-activated with 70% Ethanol and IFN-γ, TNF-α and IL-2 capture solution. Gag, pol, and env 15-mer peptides (NIH AIDS Reagents program) were prepared at two times the final concentration of 2.5 μg/ml with co-stimulatory reagents anti-CD28 10 μg/ml and anti-CD49d 10 μg/ml and added to the cells in CTL-Test™ Medium. Parallel positive […] control of PMA (20 ng/ml) and ionomycin (200 ng/mL) or mock DMSO solution was also plated with the stimulatory reagents. PBMCs were added at 300,000 cells per well. After 24 hrs, the plate was washed, and incubated with detection and tertiary solutions and shipped to CTL for scanning and QC.

SMILES: Cc1cccc(-c2nn3c(c2-c2ccnc4ccc(C(N)=O)cc24)CCC3)n1 [galunisertib, Galunisertib]
- PMA-induced frequency of p24-gag+ cells (primary CD4+ T cells): did not alter
- SIV reactivation in tissues by PET/CT (SIV-env; Example 5, all macaques, particularly after cycle 2): Extensive SIV reactivation
- SUV increase in gastrointestinal area and axillary lymph nodes (SIV-env; compared to before cycle 1 (BC1)): significant in cycle 3
- SUV at the level of the spleen or kidney (SIV-env; vs BC1): No SUV increase
- SUV in the liver and whole-body (SIV-env; vs BC1): significant increase in SUV
- Spine SUV (SIV-env; vs BC1): increased significantly with the first cycle
- clinical variables (chemistry and hematology) ([1]; before, during and after therapy): No significant changes
- adverse events ([1]; macaque studies): no adverse events
- IL-2 release ([2]; end of 3rd cycle): remained unchanged
- IFN-γ secretion, SIV-specific and non-specific ([2]; end of the 3rd cycle vs BC1): significant increase
- TNF-α release ([2]; in response to Gag and non-specifically): increased
